Experimental data published in US8362010B2, “Benzenesulfonanilide compounds suitable for treating disorders that respond to modulation of the serotonin 5-HT6 receptor” (Abbott GmbH & Co. KG, priority 2009, dated 2013).
Structures can show the parent of a compound that is named as a salt.

Target: T1, h-5-HT6 receptor (Homo sapiens, UniProt P50406)
T1 construct: expressed in transfected cells; host or cells: HEK293
Assay: 5-HT6 receptor binding assay (displacement of [3H]-LSD)
Conditions: membranes of HEK293 cells expressing h-5-HT6; 1 nM [3H]-LSD
Description: Displacement of radioligands binding to the following cloned human receptors
Cells from stable clonal cell lines expressing the corresponding receptor (5-HT6, α1-adrenergic, dopamine D2 or histamine H1 receptors) were washed with PBS (w/o Ca^++, Mg^++) and harvested in PBS with 0.02% EDTA. […] The pellets were stored at −80° C. until use. For membrane preparation, the thawed cell pellet was resuspended in ice-cold sucrose buffer (0.25 M sucrose, 10 mM Hepes (pH 7.4), 1 mM Phenylmethylsulfonyl fluoride (PMSF) in DMSO, 5 μg/ml Pepstatin-A, 3 mM EDTA, 0.025% Bacitracin) and homogenized with a Branson Sonifier W-250 (Settings: Timer 4; Output Control 3; Duty Cycle constant; 2 to 3 cycles). Cell disruption was checked with the aid of a microscope. […] The sucrose buffer supernatant was then centrifuged at 60.000 g for 1 h at 4° C. (Beckman Ultrazentrifuge XL 80). The pellet was resuspended in 30 ml ice-cold Tris buffer (20 mM TRIS (pH 7.4), 5 μg/ml Pepstatin A, 0.1 mM PMSF, 3 mM EDTA) by pipetting through a 10 ml serological pipet and centrifuged for 1 h at 4° C. at 60.000 g. A final resuspension was performed in a small volume of ice-cold Tris buffer (see above) by pressing through a serological pipet followed by ultrasonic treatment with a Branson Sonifier W-250 (Settings: Timer 1; Output Control 3; Duty Cycle constant; 1 cycle). Protein concentration was determined (BCA-Kit; Pierce) and aliquots stored at −80° C. or in liquid nitrogen for long-term storage.
All receptor binding experiments were carried out in the corresponding assay buffer in a total volume of 200 μl in the presence of various concentrations of test compound (10^−5 M to 10^−9 M, tenfold serial dilution, duplicate determinations). The assays were terminated by filtration on polyethylenimine (PEI 0.1% or 0.3%) presoaked Packard Unifilter Plates (GF/C or GF/B) with a Tomtec MachIII U 96 well-plate harvester. After the plates had been dried for 2 h at 55° C. in a drying chamber scintillation cocktail (BetaPlate Scint; PerkinElmer) was added. Radioactivity was measured in a Microbeta Trilux two hours after the addition of the scintillation mixture. Data derived from liquid scintillation counting were analysed by iterative non-linear regression analysis with the use of the Statistical Analysis System (SAS): a program similar to “LIGAND” as described by Munson and Rodbard (Analytical Biochemistry 107, 220-239 (1980). […]
Data derived from liquid scintillation counting were analyzed by iterative non-linear regression analysis with the use of the Statistical Analysis System (SAS): a program similar to “LIGAND” as described by Munson and Rodbard (Anal. Biochem. 1980, 107, 220-239). […] IC50, nH and Ki values were expressed as geometrical mean.

T1 sequence (P50406 whole entry): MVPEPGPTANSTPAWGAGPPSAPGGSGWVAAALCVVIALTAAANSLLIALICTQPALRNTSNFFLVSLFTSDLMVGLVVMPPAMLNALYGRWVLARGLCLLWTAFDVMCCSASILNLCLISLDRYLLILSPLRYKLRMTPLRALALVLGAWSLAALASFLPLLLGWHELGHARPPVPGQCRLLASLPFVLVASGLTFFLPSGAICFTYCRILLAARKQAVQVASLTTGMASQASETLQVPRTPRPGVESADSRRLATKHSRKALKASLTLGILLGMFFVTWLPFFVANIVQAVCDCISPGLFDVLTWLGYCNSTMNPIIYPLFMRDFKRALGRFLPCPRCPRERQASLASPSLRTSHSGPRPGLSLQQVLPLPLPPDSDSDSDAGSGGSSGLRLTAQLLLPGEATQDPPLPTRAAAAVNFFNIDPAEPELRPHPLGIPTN

Compound | Ki
COc1ccc(NS(=O)(=O)c2ccccc2OC(F)F)cc1N1CCCNCC1 [Example 3, N-(3-[1,4]Diazepan-1-yl-4-methoxy-phenyl)-2-difluoromethoxy-benzenesulfonamide hydrochloride] | < 10 nM
Cc1ccc(NS(=O)(=O)c2ccccc2OC(F)F)cc1N1CCCN(C)CC1 [Example 8, 2-Difluoromethoxy-N-[4-methyl-3-(4-methyl-[1,4]diazepan-1-yl)-phenyl]-benzenesulfonamide hydrochloride] | < 10 nM
Cc1ccc(NS(=O)(=O)c2cccc(OC(F)F)c2)cc1N1CCCNCC1 [Example 7, N-(3-[1,4]Diazepan-1-yl-4-methyl-phenyl)-3-difluoromethoxy-benzenesulfonamide hydrochloride] | < 50 nM
COc1ccc(NS(=O)(=O)c2cccc(OC(F)F)c2)cc1N1CCCNCC1 [Example 1, N-(3-[1,4]Diazepan-1-yl-4-methoxy-phenyl)-3-difluoromethoxy-benzenesulfonamide hydrochloride] | < 10 nM
